Reference: ChEMBL document CHEMBL1201862, “PubChem BioAssay data set” (2004)
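Method: 48-hour compound exposure of cells in 96-well plates, five concentrations, linear interpolation of endpoints. At the GI50, growth is halved.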 Activity calls are given as the source filed them. Rule as the data show it: active = GI50 up to about 1.1 µM and inactive = higher.

Tests used:
Test in all cases: NCI tumour cell line growth inhibition, 48 h
SK-MEL-5 = system: SK-MEL-5
COLO 205 = system: COLO 205
SK-MEL-28 = system: SK-MEL-28
OVCAR-8 = system: OVCAR-8
CCRF-CEM = system: CCRF-CEM
OVCAR-3 = system: OVCAR-3
SF-539 = system: SF-539
U-251 = system: U-251
IGROV-1 = system: IGROV-1
SNB-75 = system: SNB-75
HOP-62 = system: HOP-62
HT-29 = system: HT-29
786-0 = system: 786-0
HCC 2998 = system: HCC 2998
UACC-257 = system: UACC-257
MDA-N = system: MDA-N
A498 = system: A498
UO-31 = system: UO-31
NCI/ADR-RES = system: NCI/ADR-RES
HCT-116 = system: HCT-116

Measured: GI50

CCOC(=O)/C1=C(\C)N(Cc2ccccc2)C(=O)c2ccccc2C(=O)c2c(OC(C)=O)ccc(OC(C)=O)c21
inactive: SK-MEL-5 33.3 µM | COLO 205 78.7 µM | SK-MEL-28 > 100 µM | OVCAR-8 67.8 µM | CCRF-CEM 40.8 µM | OVCAR-3 23.1 µM | SF-539 > 100 µM | U-251 > 100 µM | IGROV-1 21.9 µM | SNB-75 > 100 µM | HOP-62 40.6 µM | HT-29 40.2 µM | 786-0 > 100 µM | HCC 2998 7.6 µM | UACC-257 61.9 µM | MDA-N 36 µM | A498 > 100 µM | UO-31 > 100 µM | NCI/ADR-RES 31.8 µM

C1CNCCNCCN1
inactive: SK-MEL-5 > 100 µM | COLO 205 > 100 µM | SK-MEL-28 > 100 µM | OVCAR-8 > 100 µM | CCRF-CEM > 100 µM | OVCAR-3 > 100 µM | SF-539 26.2 µM | U-251 > 100 µM | IGROV-1 > 100 µM | HOP-62 > 100 µM | HT-29 > 100 µM | 786-0 > 100 µM | HCC 2998 > 100 µM | HCT-116 > 100 µM | UACC-257 > 100 µM | MDA-N > 100 µM | A498 > 100 µM | UO-31 > 100 µM | NCI/ADR-RES > 100 µM

CCCCCCCCCCCCCCCCCCOCC(CO[PH](=O)O)OCCCCCCCCCCCCCCCCCC (configuration not stated)
inactive: SK-MEL-5 > 50 µM | COLO 205 > 50 µM | SK-MEL-28 > 50 µM | OVCAR-8 > 50 µM | OVCAR-3 > 50 µM | SF-539 > 50 µM | U-251 > 50 µM | IGROV-1 > 50 µM | SNB-75 > 50 µM | HT-29 > 50 µM | 786-0 > 50 µM | HCC 2998 > 50 µM | HCT-116 > 50 µM | UACC-257 > 50 µM | MDA-N > 50 µM | A498 > 50 µM | NCI/ADR-RES > 50 µM

COc1cc(O)c(C(C)=O)c(O)c1
inactive: SK-MEL-5 35.3 µM | COLO 205 > 100 µM | SK-MEL-28 52.6 µM | OVCAR-8 55.2 µM | OVCAR-3 > 100 µM | SF-539 > 100 µM | U-251 63.8 µM | IGROV-1 77.3 µM | SNB-75 50.8 µM | HOP-62 > 100 µM | HT-29 > 100 µM | 786-0 > 100 µM | HCC 2998 > 100 µM | HCT-116 55 µM | UACC-257 > 100 µM | MDA-N > 100 µM | A498 80.5 µM | UO-31 59.6 µM | NCI/ADR-RES > 100 µM

CN1C(=O)C2(C=CC(O)CC2)c2ccccc21 (configuration not stated)
inactive: SK-MEL-5 > 100 µM | COLO 205 > 100 µM | SK-MEL-28 > 100 µM | OVCAR-8 > 100 µM | CCRF-CEM > 100 µM | OVCAR-3 > 100 µM | U-251 > 100 µM | IGROV-1 > 100 µM | SNB-75 > 100 µM | HOP-62 > 100 µM | HT-29 > 100 µM | 786-0 > 100 µM | HCC 2998 > 100 µM | HCT-116 > 100 µM | UACC-257 > 100 µM | MDA-N > 100 µM | A498 > 100 µM | UO-31 > 100 µM | NCI/ADR-RES > 100 µM

O=C1/C(=C/c2ccccc2)CCCC1CN1CCCCC1 (configuration not stated)
inactive: SK-MEL-5 4.31 µM | COLO 205 3 µM | SK-MEL-28 1.97 µM | OVCAR-8 2.09 µM | OVCAR-3 1.71 µM | SF-539 3.12 µM | U-251 13.3 µM | IGROV-1 2.97 µM | SNB-75 7.91 µM | HOP-62 20.8 µM | HT-29 1.58 µM | 786-0 1.87 µM | HCC 2998 15.6 µM | HCT-116 1.68 µM | UACC-257 6.07 µM | MDA-N 2.11 µM | A498 16.7 µM | UO-31 1.88 µM | NCI/ADR-RES 3.24 µM

C(#C[C@@]12CCC[C@@H]1NCO2)c1ccc2c(c1)OCO2
inactive: SK-MEL-5 33.3 µM | COLO 205 16.9 µM | SK-MEL-28 35.6 µM | OVCAR-8 60.8 µM | CCRF-CEM 42.6 µM | OVCAR-3 65.6 µM | SF-539 29.3 µM | U-251 70.5 µM | IGROV-1 45.9 µM | SNB-75 45.1 µM | HOP-62 87.3 µM | HT-29 32.2 µM | 786-0 43.7 µM | HCC 2998 17.6 µM | UACC-257 44.2 µM | MDA-N 61.5 µM | A498 > 100 µM | UO-31 30.3 µM | NCI/ADR-RES 37.5 µM

Nn1c(Nc2ccc(S(=O)(=O)Nc3ncccn3)cc2)nnc(/C=C/c2c(O)ccc3ccccc23)c1=O
inactive: OVCAR-8 34.6 µM | CCRF-CEM 15.8 µM | OVCAR-3 15.1 µM | U-251 31.9 µM | IGROV-1 27.5 µM | SNB-75 22.2 µM | HOP-62 33.6 µM | HT-29 33.9 µM | 786-0 26.6 µM | HCC 2998 23.3 µM | HCT-116 21.1 µM | UACC-257 20.1 µM | MDA-N 31.4 µM | A498 25.2 µM | UO-31 30.5 µM | NCI/ADR-RES 32.7 µM
